These results are taken from the OligoGym collection.

The target in this series is HSD17B13. Particulars: ASO, HepaRG.

After the bases stand the sugars from the 5' end (letter, count) and the backbone: PS all phosphorothioate, else s phosphorothioate and o phosphodiester by linkage. Methylation of C is not given here. e = 2'-O-(2-methoxyethyl) (MOE); k = constrained ethyl (cEt); d = 2'-deoxy (DNA); m = 2'-O-methyl

For the setting “1 µM”, TCCCTGTGTAAATAAG (sugars k3 d10 k3, PS) gave a target mRNA inhibition of 35%.
TCCGTTATAAGTTTCA (sugars k3 d10 k3, PS) came in with a target mRNA inhibition (1 µM) of 65%.
For the setting “1 µM”, TCCTAGGGAGGAGGTA (sugars k3 d10 k3, PS) gave a target mRNA inhibition of 33%.
The same measure, in the same setting: in the case of TCCTTGTGTAGTCCTA (sugars k3 d10 k3, PS) it was 61%; in that of TCGAAACTATTCATAT (sugars k3 d10 k3, PS), 64%.
In turn, TCGAATCATTAAGCTT (sugars k3 d10 k3, PS) had a target mRNA inhibition (1 µM) of 34%.
Same read-out and setting: in the case of TCGATGGAAGAAGTGC (sugars k3 d10 k3, PS) it was 34%; in that of TCGCCTAAAGGAGATC (sugars k3 d10 k3, PS), 70%.
The same measure, in the same setting: in the case of TCTAAAGCAGGCTACT (sugars k3 d10 k3, PS) it was 32%; in that of TCTAAAGGGCTGCTCT (sugars k3 d10 k3, PS), 33%; in that of TCTAAATTACTCCGTT (sugars k3 d10 k3, PS), 15%.
Same read-out and setting: in the case of TCTAAATTATTGCCTG (sugars k3 d10 k3, PS) it was 43%; in that of TCTATTATGCACTCTA (sugars k3 d10 k3, PS), 55%.
Consider “TCTCTTGACAATGGTT (sugars kkdddddddddkekek, PS)”, for which the target mRNA inhibition (0.02 µM) turned out to be 15%; the target mRNA inhibition (0.078 µM) came out at 25%; the target mRNA inhibition (0.313 µM) turned out to be 43%; the target mRNA inhibition (1 µM) stood at 70%; the target mRNA inhibition (1.25 µM) came out at 71%; the target mRNA inhibition (5 µM) was 70%.
Consider “TCTCUTAGCTGTGCAC (sugars k3 d1 m1 d8 k3, PS)”, for which the target mRNA inhibition (1 µM) amounted to 49%.
TCTGATGTCAGACCTC (sugars k3 d10 k3, PS) displayed a target mRNA inhibition (1 µM) of 42%.
Still for that read-out and setting: in the case of TCTGATTACAGCATCA (sugars k3 d10 k3, PS) it was 48%; in that of “TCTGGGACCAAGGATA (sugars k3 d1 m1 d8 k3, PS)”, 31%.
Same read-out and setting: in the case of “TCTGGGACCAAGGATA (sugars kkdddddddddkekek, PS)” it was 56%.
On to TCTGTGGCATGGCTAC (sugars k3 d10 k3, PS), for which the target mRNA inhibition (1 µM) is 67%.
On the same count and under the same terms, in the case of “TCTTAAACCTTCCCTG (sugars k3 d9 k3 e1, PS)” it was 38%.
On the same count and under the same terms, in the case of “TCTTAAGATACCCAGG (sugars k3 d1 m1 d8 k3, PS)” it was 51%.
Same read-out and setting: in the case of “TCTTAAGATACCCAGG (sugars kkdddddddddkekek, PS)” it was 35%; in that of TCTTAATTACATTCCC (sugars k3 d10 k3, PS), 64%; in that of TCTTACATGATTAAGC (sugars k3 d10 k3, PS), 35%.
TCTTACGACTTCATCT (sugars k3 d10 k3, PS) registered a target mRNA inhibition (1 µM) of 34%.
For “TCTTAGCTGTGCACTC (sugars kkdddddddddkekek, PS)”, the target mRNA inhibition (1 µM) was 50%.
Consider “TCTTATGTAATAGCCA (sugars k3 d1 m1 d8 k3, PS)”, for which the target mRNA inhibition (1 µM) was 64%.
For “TCTTATGTAATAGCCA (sugars k3 d9 k3 e1, PS)”, the target mRNA inhibition reads like this: (0.02 µM) 15%; (0.078 µM) 18%; (0.313 µM) 25%; (1 µM) 76%; (1.25 µM) 65%; (5 µM) 84%.
As to “TCTTATGTAATAGCCA (sugars kkdddddddddkekek, PS)”, the target mRNA inhibition (1 µM) was 65%.
Still for that read-out and setting: in the case of TCTTCATCCTTGGTGC (sugars k3 d10 k3, PS) it was 48%; in that of “TCTTGACAATGGTTGA (sugars k3 d1 m1 d8 k3, PS)”, 56%; in that of TCTTGATGTAGTGGGA (sugars k3 d10 k3, PS), 44%.
Still for that read-out and setting: in the case of TCTTTAGTCAACAGTA (sugars k3 d10 k3, PS) it was 68%; in that of TGAACAGTCTTAAACC (sugars k3 d10 k3, PS), 56%.
With TGAACTGAAACGATCC (sugars k3 d10 k3, PS), the target mRNA inhibition (1 µM) turned out to be 58%.
The sequence “TGAAGTTAGTATAGTT (sugars k3 d1 m1 d8 k3, PS)” returned a target mRNA inhibition (1 µM) of 62%.
The same measure, in the same setting: in the case of TGAATGTAAAGGCTGG (sugars k3 d10 k3, PS) it was 38%; in that of “TGACAATGGTTGATAG (sugars kkdddddddddkekek, PS)”, 37%.
With TGAGAACAATCTCCCC (sugars k3 d10 k3, PS), the target mRNA inhibition is 12% (0.02 µM); 30% (0.078 µM); 57% (0.313 µM); 69% (1 µM); 84% (1.25 µM); 90% (5 µM).
TGAGATTACCCCTGGC (sugars k3 d10 k3, PS) came in with a target mRNA inhibition (1 µM) of 53%.
On the same count and under the same terms, in the case of TGAGCCTAAAATTGTC (sugars k3 d10 k3, PS) it was 30%.
TGAGCTAGACAATTGC (sugars k3 d10 k3, PS) returned a target mRNA inhibition (1 µM) of 78%.
As to TGAGTAGTGTAAGCTG (sugars k3 d10 k3, PS), the target mRNA inhibition (1 µM) was 62%.
Same read-out and setting: in the case of “TGATATGTCAATACTC (sugars k3 d10 k1 d1 k1, PS)” it was 57%.
Same read-out and setting: in the case of “TGATATTCTGTGGCAT (sugars k3 d1 m1 d8 k3, PS)” it was 61%.
On the same count and under the same terms, in the case of “TGATATTCTGTGGCAT (sugars kkdddddddddkekek, PS)” it was 46%.
On to TGATTTAGAGAGCGAT (sugars k3 d10 k3, PS), for which the target mRNA inhibition (1 µM) worked out at 35%.
With TGATTTTGACCTTACC (sugars k3 d10 k3, PS), the target mRNA inhibition (1 µM) was 11%.
Take “TGATUGAGTTCTCCAC (sugars k3 d1 m1 d8 k3, PS)”: for the setting “1 µM”, the target mRNA inhibition was found to be 4%.
As for TGCAACTTTTAGTCAG (sugars k3 d10 k3, PS), where the note is “1 µM”, the target mRNA inhibition amounted to 41%.
The same measure, in the same setting: in the case of TGCAATGAGATTACCC (sugars k3 d10 k3, PS) it was 54%; in that of “TGCACCGTTTTGGGCT (sugars k3 d1 m1 d8 k3, PS)”, 55%.
As for “TGCACCGTTTTGGGCT (sugars k3 d9 k3 e1, PS)”, the target mRNA inhibition (1 µM) turned out to be 43%.
In turn, TGCACCGTTTTGGGCT (sugars k3 d10 k3, PS) came in with a target mRNA inhibition (1 µM) of 36%.
Same read-out and setting: in the case of “TGCACCGTTTTGGGCT (sugars kkdddddddddkekek, PS)” it was 29%; in that of “TGCAGCATTGATTCGA (sugars k3 d9 k3 e1, PS)”, 52%.
Still for that read-out and setting: in the case of TGCATAAGAGCCAAAC (sugars k3 d10 k3, PS) it was 56%.
On to “TGCCAAACCAATGTTT (sugars k3 d1 m1 d8 k3, PS)”, for which, for the setting “1 µM”, the target mRNA inhibition turned out to be 35%.
Still for that read-out and setting: in the case of “TGCCAAACCAATGTTT (sugars k3 d9 k3 e1, PS)” it was 43%; in that of TGCCAAGCTTTGTGTC (sugars k3 d10 k3, PS), 38%.
For TGCCCCGAATTATTTC (sugars k3 d10 k3, PS), for the setting “1 µM”, the target mRNA inhibition amounted to 3%.
Regarding “TGCTACTTGAACAGTC (sugars k3 d9 k3 e1, PS)”, the target mRNA inhibition (1 µM) turned out to be 68%.
